In patent publication US12509459B2, “Inhibitors of NLRP3 inflammasome” (BioAge Labs, Inc., priority 2024, dated 2025):
pIC50: −log10 of the molar value.

Biological target: NLRP3 (Homo sapiens, UniProt Q96P20)
Test: THP-1 cell-based NLRP3 activation assay
Design: endogenous in cells; host or cells: THP-1 cells (PMA-differentiated, LPS-primed, nigericin-stimulated)
Conditions: PMA-differentiated THP-1 cells, LPS 100 ng/mL then 10 μM nigericin
Summary of the method: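 THP-1 cells were PMA-differentiated (20 nM, 24 h or 500 nM, 3 h), primed with 100 ng/mL LPS for 3 h, then given compound in Opti-Mem for 30 min before 10 μM nigericin for 1 h. Supernatants assayed; viability of adherent cells by CellTiter-Glo.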

NLRP3, sequence (Q96P20 whole entry): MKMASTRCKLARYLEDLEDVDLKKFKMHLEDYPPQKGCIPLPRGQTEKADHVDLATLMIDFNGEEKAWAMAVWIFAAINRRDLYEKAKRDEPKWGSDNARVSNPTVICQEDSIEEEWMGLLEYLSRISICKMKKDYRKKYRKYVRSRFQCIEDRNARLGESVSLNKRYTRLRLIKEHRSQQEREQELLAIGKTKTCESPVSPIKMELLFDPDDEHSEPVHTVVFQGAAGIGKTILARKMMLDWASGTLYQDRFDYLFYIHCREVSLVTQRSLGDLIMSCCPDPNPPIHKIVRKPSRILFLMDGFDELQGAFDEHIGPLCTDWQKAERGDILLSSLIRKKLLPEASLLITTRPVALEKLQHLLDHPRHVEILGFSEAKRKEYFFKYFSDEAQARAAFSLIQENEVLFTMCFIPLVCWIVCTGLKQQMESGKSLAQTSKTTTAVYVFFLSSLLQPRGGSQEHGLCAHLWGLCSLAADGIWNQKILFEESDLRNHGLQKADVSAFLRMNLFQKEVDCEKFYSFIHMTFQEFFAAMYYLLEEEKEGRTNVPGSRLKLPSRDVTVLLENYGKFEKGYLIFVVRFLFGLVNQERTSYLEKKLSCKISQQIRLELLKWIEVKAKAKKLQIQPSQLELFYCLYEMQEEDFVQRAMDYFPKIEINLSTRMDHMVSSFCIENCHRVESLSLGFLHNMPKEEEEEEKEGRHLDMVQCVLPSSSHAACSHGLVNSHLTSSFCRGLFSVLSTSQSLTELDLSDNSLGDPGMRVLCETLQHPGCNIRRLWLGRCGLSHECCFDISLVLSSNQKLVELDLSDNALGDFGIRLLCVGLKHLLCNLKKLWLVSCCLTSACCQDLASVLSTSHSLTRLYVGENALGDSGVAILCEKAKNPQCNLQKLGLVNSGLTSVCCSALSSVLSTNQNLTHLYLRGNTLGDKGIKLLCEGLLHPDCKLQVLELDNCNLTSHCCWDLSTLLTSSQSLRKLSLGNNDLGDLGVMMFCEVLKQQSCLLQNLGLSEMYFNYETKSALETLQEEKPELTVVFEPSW

Compound | pIC50
CCOc1cc(C(=O)N(C)[C@H](CCNC)c2cncc3cn[nH]c23)ccc1-c1cccc(F)c1 [Compound 039] | 4.82 to 6.00
CCOc1cc(C(=O)N(C)[C@@H](c2cncc3cn[nH]c23)C2CN(CC)C2)ccc1-c1cccc(C)c1 [Compound 169] | > 7.00
Cc1ccc([C@@H](CCN(C)C)N(C)C(=O)c2ccc(-c3cccc(F)c3)c(OC3CC3)c2)c2[nH]ncc12 [Compound 202] | > 7.00
CCOc1cc(C(=O)N(C)[C@@H](CCN(C)C)c2ccc(C)c3cn[nH]c23)ccc1-c1ccccc1 [Compound 205] | > 7.00
CCOc1cc(C(=O)N(C)[C@H](CO)c2cncc3cn[nH]c23)ccc1-c1ccccc1 [Compound 005] | > 7.00
CCOc1cc(C(=O)N(CCO)Cc2cnc(CNC)c3cn[nH]c23)ccc1-c1cccc(F)c1 [Compound 050] | 4.82 to 6.00
CCOc1cc(C(=O)N(C)[C@H](c2cncc3cn[nH]c23)[C@@H]2CCNC2)ccc1-c1cccc(F)c1 (single isomer, unassigned) [Compound 088] | 6.30 to 7.00
CCOc1cc(C(=O)N(C)[C@H](CCN(C)C)c2cnc(CO)c3cn[nH]c23)ccc1-c1cccc(F)c1 [Compound 099] | > 7.00
CCOc1cc(C(=O)N(C)[C@@H](CCO)c2cnc(C)c3cn[nH]c23)ccc1-c1ccccc1 [Compound 028] | < 4.82
CCOc1cc(C(=O)N(CCN2CCC(F)(F)C2)Cc2cncc3cn[nH]c23)ccc1-c1cccc(F)c1 [Compound 115] | > 7.00
CCOc1cc(C(=O)N(C)[C@H](c2cncc3cn[nH]c23)C2CN(C(C)C)C2)ccc1-c1ccccc1 [Compound 132] | 4.82 to 6.00
CCOc1cc(C(=O)N(C)[C@H](CN2CCC2)c2cncc3cn[nH]c23)ccc1-c1cccc(F)c1 [Compound 123] | 6.00 to 6.30
CCOc1cc(C(=O)N(C)[C@H](CCN(C)C)c2cccc3cn[nH]c23)ccc1-c1ccccc1 [Compound 194] | > 7.00
CCOc1cc(C(=O)N(C)[C@H](CCN)c2cncc3cn[nH]c23)ccc1C [Compound 185] | 4.82 to 6.00
CCOc1cc(C(=O)N(C)[C@@H](c2cncc3cn[nH]c23)C2CN(CC)C2)ccc1-c1ccccc1 [Compound 177] | > 7.00
CCOc1cc(C(=O)N(C)[C@H](c2cncc3cn[nH]c23)[C@H]2CCNC2)ccc1-c1cccc(F)c1 (single isomer, unassigned) [Compound 085] | > 7.00
CCOc1cc(C(=O)N(Cc2cncc3cn[nH]c23)[C@H]2C[C@@H](NC)C2)ccc1-c1cccc(F)c1 [Compound 234] | 4.82 to 6.00
CCOc1cc(C(=O)N(C)[C@H](CN(CC)CC)c2cncc3cn[nH]c23)ccc1-c1cccc(F)c1 [Compound 127] | > 7.00
CCOc1cc(C(=O)N(CC(C)(C)O)C(C)c2cnc(C)c3cn[nH]c23)ccc1-c1cccc(F)c1 (stereo not shown) [Compound 062] | > 7.00
CN(C)CC[C@H](c1cncc2cn[nH]c12)N(C)C(=O)c1ccc(-c2cccc(Cl)c2)c(OC2CC2)c1 [Compound 102] | > 7.00
CCOc1cc(C(=O)N(C)[C@H](CCN(C)CCO)c2cncc3cn[nH]c23)ccc1-c1cccc(Cl)c1 [Compound 230] | > 7.00
CCOc1cc(C(=O)N(C)C(CN2CCC(O)C2)c2cncc3cn[nH]c23)ccc1-c1cccc(F)c1 (stereo not shown) [Compound 247] | > 7.00
CCOc1cc(C(=O)N(C)[C@H](CCN(C)CCCF)c2cncc3cn[nH]c23)ccc1-c1ccccc1 [Compound 138] | > 7.00

Compound | pIC50
CCOc1cc(C(=O)N(C)[C@H](c2cncc3cn[nH]c23)C2CNC2)ccc1-c1ccccc1 [Compound 151] | > 7.00
CCOc1cc(C(=O)N(C)[C@@H](c2cncc3cn[nH]c23)C2CNC2)ccc1-c1cccc(Cl)c1 [Compound 181] | > 7.00
CCOc1cc(C(=O)N(C)[C@H](c2c[nH]cn2)c2cncc3cn[nH]c23)ccc1-c1cccc(F)c1 [Compound 267] | 6.30 to 7.00
CCOc1cc(C(=O)N(C)[C@H](CO)c2cnc(C)c3cn[nH]c23)ccc1-c1cc(F)cc(F)c1 [Compound 018] | > 7.00
CN(C(=O)c1ccc(-c2cccc(Cl)c2)c(OC2CC2)c1)[C@H](CCN1CCC1)c1cncc2cn[nH]c12 [Compound 281] | 4.82 to 6.00
CCOc1cc(C(=O)N(C)[C@H](CN(C)C)c2cnc(CO)c3cn[nH]c23)ccc1-c1cccc(F)c1 [Compound 188] | > 7.00
CCOc1cc(C(=O)N(C)C(CCN(C)CC)c2cncc3cn[nH]c23)ccc1-c1cccc(F)c1 (stereo not shown) [Compound 066] | > 7.00
CCOc1cc(C(=O)N(C)[C@H](CCN(C)CCOC)c2cncc3cn[nH]c23)ccc1-c1cccc(F)c1 [Compound 263] | > 7.00
CCOc1cc(C(=O)N(C)[C@@H](c2cncc3cn[nH]c23)[C@@H]2CCNC2)ccc1-c1ccccc1 [Compound 159] | > 7.00
CCOc1cc(C(=O)N(Cc2cnc(C)c3cn[nH]c23)[C@H]2C[C@@H](NC)C2)ccc1-c1cccc(Cl)c1 [Compound 277] | > 7.00
CCOc1cc(C(=O)N(CCO)Cc2cncc3cn[nH]c23)ccc1-c1cccc(F)c1 [Compound 041] | > 7.00
CCOc1cc(C(=O)N(C)[C@H](C[C@H](C)O)c2cncc3cn[nH]c23)ccc1-c1cccc(Cl)c1 [Compound 008] | 4.82 to 6.00
CCOc1cc(C(=O)N(C)[C@H](CO)c2cnc(CO)c3cn[nH]c23)ccc1-c1cccc(F)c1 [Compound 037] | > 7.00
CCOc1cc(C(=O)N(C)[C@@H](c2cncc3cn[nH]c23)[C@H]2CCNC2)ccc1-c1ccccc1 [Compound 152] | 6.00 to 6.30
CCOc1cc(C(=O)N(C)[C@H](CCN2CCC2)c2cccc3cn[nH]c23)ccc1-c1cccc(Cl)c1 [Compound 218] | > 7.00
CCOc1cc(C(=O)N(C)C(CN(CC)CC)c2cccc3cn[nH]c23)ccc1-c1cccc(F)c1 (stereo not shown) [Compound 261] | > 7.00
CCOc1cc(C(=O)N(C)[C@H](CC[N+](C)(C)[O-])c2cncc3cn[nH]c23)ccc1-c1ccccc1 [Compound 166] | > 7.00
CCOc1cc(C(=O)N(Cc2cncc3cn[nH]c23)[C@H]2C[C@@H](NC)C2)ccc1-c1cccc(Cl)c1 [Compound 238] | > 7.00
CCOc1cc(C(=O)N(C)[C@H](CCN(C)C)c2cncc3cn[nH]c23)ccc1-c1cccc(Cl)c1 [Compound 098] | > 7.00
CCOc1cc(C(=O)N(CCN2CCC(F)CC2)Cc2cncc3cn[nH]c23)ccc1-c1cccc(F)c1 [Compound 110] | > 7.00
CCOc1cc(C(=O)N(C)[C@H](CO)c2cncc3cn[nH]c23)ccc1-c1cccc(F)c1 [Compound 001] | > 7.00
CCOc1cc(C(=O)N(C)C(CN(C)CC)c2cccc3cn[nH]c23)ccc1-c1cccc(F)c1 (stereo not shown) [Compound 258] | 6.30 to 7.00
CCOc1cc(C(=O)N(CCO)Cc2cnc(N)c3cn[nH]c23)ccc1-c1cccc(Cl)c1 [Compound 046] | > 7.00

Compound | pIC50
CCOc1cc(C(=O)N(C)[C@H](CO)c2cnc(CC)c3cn[nH]c23)ccc1-c1cc(C)cc(F)c1 [Compound 032] | 6.30 to 7.00
CCOc1cc(C(=O)N(C)[C@H](CCN(C)C)c2ccc(C)c3cn[nH]c23)ccc1-c1cccc(F)c1 [Compound 200] | 6.30 to 7.00
CCNCC[C@H](c1cncc2cn[nH]c12)N(C)C(=O)c1ccc(-c2cccc(F)c2)c(OCC)c1 [Compound 167] | > 7.00
CCOc1cc(C(=O)N(CCN2C[C@@H](F)[C@@H](F)C2)Cc2cncc3cn[nH]c23)ccc1-c1cccc(F)c1 [Compound 108] | > 7.00
CCOc1cc(C(=O)N(C)[C@@H](CN(C)CC)c2cccc3cn[nH]c23)ccc1-c1cccc(F)c1 [Compound 259] | > 7.00
CCOc1cc(C(=O)N(CCN)Cc2cncc3cn[nH]c23)ccc1-c1cccc(F)c1 [Compound 055] | > 7.00
CCOc1cc(C(=O)N(C)[C@H](c2cncc3cn[nH]c23)C2CN(C(C)C)C2)ccc1-c1cccc(F)c1 [Compound 176] | 6.30 to 7.00
CCOc1cc(C(=O)N(C)[C@H](CO)c2cnc(C)c3cn[nH]c23)ccc1-c1cccc(F)c1 [Compound 017] | > 7.00
CCOc1cc(C(=O)N(C)[C@H](c2cncc3cn[nH]c23)C2CNC2)ccc1-c1cccc(Cl)c1 [Compound 182] | > 7.00
CCOc1cc(C(=O)N(Cc2cncc3cn[nH]c23)[C@H]2C[C@@H](N(C)C)C2)ccc1-c1cccc(F)c1 [Compound 244] | > 7.00
CCOc1cc(C(=O)N(C)[C@H](CCN2C[C@@H](F)[C@@H](F)C2)c2cncc3cn[nH]c23)ccc1-c1cccc(F)c1 [Compound 086] | > 7.00
CCOc1cc(C(=O)N(C)[C@H](CCN(C)CC(F)F)c2cncc3cn[nH]c23)ccc1-c1cccc(F)c1 [Compound 094] | > 7.00
CCOc1cc(C(=O)N(C)[C@H](CCN2CC(F)C2)c2cncc3cn[nH]c23)ccc1-c1cccc(F)c1 [Compound 070] | > 7.00
CCOc1cc(C(=O)N(C)[C@H](c2cncc3cn[nH]c23)C2CN(CC)C2)ccc1-c1cccc(Cl)c1 [Compound 131] | > 7.00
CCOc1cc(C(=O)N(C)C(CN2CC(O)C2)c2cncc3cn[nH]c23)ccc1-c1cccc(F)c1 (stereo not shown) [Compound 246] | > 7.00
CCOc1cc(C(=O)N(C)[C@@H](c2cncc3cn[nH]c23)C2CNC2)ccc1-c1cccc(C)c1 [Compound 168] | > 7.00
CCOc1cc(C(=O)N(C)[C@@H](CN(C)C)c2cccc3cn[nH]c23)ccc1-c1cccc(Cl)c1 [Compound 221] | > 7.00
CCOc1cc(C(=O)N(C)[C@@H](c2cncc3cn[nH]c23)[C@H]2CCNC2)ccc1-c1cccc(F)c1 (single isomer, unassigned) [Compound 089] | > 7.00
CCOc1cc(C(=O)N(C)[C@@H](CCO)c2cncc3cn[nH]c23)ccc1-c1ccccc1 [Compound 010] | 4.82 to 6.00
CCOc1cc(C(=O)N(C)[C@@H](c2cncc3cn[nH]c23)C2CN(C(C)C)C2)ccc1-c1ccccc1 [Compound 179] | > 7.00
CCOc1cc(C(=O)N(C)[C@@H](c2cnc(C)c3cn[nH]c23)C2CNC2)ccc1-c1cccc(F)c1 [Compound 078] | > 7.00
